Experimental data from ChEMBL document CHEMBL5465560, “Selectivity Literature for EUbOPEN Chemogenomic Library” (2024).

Legend:
Ephrin type-A receptor 4 = Ephrin type-A receptor 4 (Homo sapiens, UniProt P54764); settings: at 10 µM
[1] = biological target: T1, Histone-lysine N-methyltransferase SUV39H1 (Homo sapiens) (UniProt O43463); test: Selectivity interaction (Methyltransferase screen (radiometric assays, panel of 8 PRMTs, 21 protein lysine methyltransferases, 3 DNA methyltransferases, and one RNA methyltransferase)) EUB0000272b SUV39H1
T1 sequence (whole entry): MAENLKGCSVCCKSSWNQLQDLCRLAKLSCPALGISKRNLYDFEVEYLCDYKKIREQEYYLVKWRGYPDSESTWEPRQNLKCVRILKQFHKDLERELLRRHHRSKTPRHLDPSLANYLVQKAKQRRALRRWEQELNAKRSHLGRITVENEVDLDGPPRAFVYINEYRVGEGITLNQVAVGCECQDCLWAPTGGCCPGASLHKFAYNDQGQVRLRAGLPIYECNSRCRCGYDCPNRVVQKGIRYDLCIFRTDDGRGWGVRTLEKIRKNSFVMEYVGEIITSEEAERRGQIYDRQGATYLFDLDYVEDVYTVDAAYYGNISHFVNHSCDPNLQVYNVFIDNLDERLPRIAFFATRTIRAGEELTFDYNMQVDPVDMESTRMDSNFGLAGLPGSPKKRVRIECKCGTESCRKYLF

[2] = biological target: Serine/threonine-protein kinase 24 (Homo sapiens) (UniProt Q9Y6E0); test: Selectivity interaction (KinomeScan (DiscoverX)) EUB0000655a STK24; settings: at 10 µM
[3] = biological target: SRSF protein kinase 2 (Homo sapiens) (UniProt P78362); test: Selectivity interaction (KinomeScan (DiscoverX)) EUB0000618a SRPK2; settings: at 10 µM
[4] = biological target: Phosphatidylinositol 4,5-bisphosphate 3-kinase catalytic subunit alpha isoform (Homo sapiens) (UniProt P42336); settings: at 10 µM
[5] = biological target: Protein-tyrosine kinase 6 (Homo sapiens, UniProt Q13882); test: Selectivity interaction (KinomeScan (DiscoverX)) EUB0000607a PTK6; settings: at 10 µM
[6] = biological target: Protein kinase C eta type (Homo sapiens) (UniProt P24723); test: Selectivity interaction (KinomeScan (DiscoverX)) EUB0000607a PRKCH; settings: at 10 µM
[7] = biological target: Casein kinase II subunit alpha' (Homo sapiens) (UniProt P19784); test: Selectivity interaction (KinomeScan (DiscoverX)) EUB0000607a CSNK2A2; settings: at 10 µM
[8] = biological target: Non-receptor tyrosine-protein kinase TYK2 (Homo sapiens, UniProt P29597); test: Selectivity interaction (KinomeScan (DiscoverX)) EUB0000045b TYK2; settings: at 10 µM
[9] = biological target: Tyrosine-protein kinase Srms (Homo sapiens) (UniProt Q9H3Y6); test: Selectivity interaction (KinomeScan (DiscoverX)) EUB0000595a SRMS; settings: at 10 µM
[10] = biological target: Serine/threonine-protein kinase 26 (Homo sapiens, UniProt Q9P289); test: Selectivity interaction (Kinase panel (KiNativ target engagement assay in Jurkat cells)) EUB0001635a STK26; format: cell-based; settings: Selectivity number of off-targets 0.0, Selectivity number of targets 233.0, Source Knowledge https://www.sciencedirect.com/science/article/pii/S2451945619300674?via%3Dihub, at 1 µM
[11] = biological target: T2, Phosphatidylinositol 5-phosphate 4-kinase type-2 beta (Homo sapiens) (UniProt P78356); test: Selectivity interaction (Kinase panel (KiNativ target engagement assay in Jurkat cells)) EUB0001635a PIP4K2B; format: cell-based; settings: Selectivity number of off-targets 0.0, Selectivity number of targets 233.0, Source Knowledge https://www.sciencedirect.com/science/article/pii/S2451945619300674?via%3Dihub, at 1 µM
T2 sequence (whole entry): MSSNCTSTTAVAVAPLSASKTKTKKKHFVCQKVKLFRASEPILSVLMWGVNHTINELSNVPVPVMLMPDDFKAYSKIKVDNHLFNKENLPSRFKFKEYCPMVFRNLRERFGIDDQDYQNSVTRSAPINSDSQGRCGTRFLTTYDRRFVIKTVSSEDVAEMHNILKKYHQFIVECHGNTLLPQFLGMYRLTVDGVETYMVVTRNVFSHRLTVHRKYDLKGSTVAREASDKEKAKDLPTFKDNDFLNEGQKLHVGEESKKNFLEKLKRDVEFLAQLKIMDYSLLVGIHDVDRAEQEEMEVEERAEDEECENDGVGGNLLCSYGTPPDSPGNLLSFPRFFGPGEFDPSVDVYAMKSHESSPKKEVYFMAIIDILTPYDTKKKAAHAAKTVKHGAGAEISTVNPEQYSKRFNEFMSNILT

[12] = biological target: T3, Activin receptor type-1 (Homo sapiens) (UniProt Q04771); settings: at 10 µM
T3 sequence (whole entry): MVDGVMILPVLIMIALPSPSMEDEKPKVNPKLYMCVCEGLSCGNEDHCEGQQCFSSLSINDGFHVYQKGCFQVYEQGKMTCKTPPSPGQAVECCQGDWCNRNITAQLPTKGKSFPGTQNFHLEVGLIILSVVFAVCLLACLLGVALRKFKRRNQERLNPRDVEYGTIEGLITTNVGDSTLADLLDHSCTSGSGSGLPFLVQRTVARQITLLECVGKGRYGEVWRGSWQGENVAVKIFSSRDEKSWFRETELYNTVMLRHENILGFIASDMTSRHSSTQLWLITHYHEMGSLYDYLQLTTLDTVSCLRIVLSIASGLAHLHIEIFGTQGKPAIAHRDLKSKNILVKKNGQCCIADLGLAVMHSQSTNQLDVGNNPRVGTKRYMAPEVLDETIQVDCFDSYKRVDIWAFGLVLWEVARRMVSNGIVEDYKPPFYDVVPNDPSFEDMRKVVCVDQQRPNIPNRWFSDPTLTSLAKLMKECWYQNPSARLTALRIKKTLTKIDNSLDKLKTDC

Activated CDC42 kinase 1 = Activated CDC42 kinase 1 (Homo sapiens, UniProt Q07912); test: Selectivity interaction (Kinase panel (Invitrogen)) EUB0000639a TNK2; settings: at 200 nM
[13] = biological target: Serine/threonine-protein kinase SIK3 (Homo sapiens) (UniProt Q9Y2K2); test: Selectivity interaction (KinomeScan (DiscoverX)) EUB0000229b SIK3; settings: at 10 µM
[14] = biological target: Calcium/calmodulin-dependent protein kinase kinase 1 (Homo sapiens) (UniProt Q8N5S9); test: Selectivity interaction (ProQinase) EUB0000171b CAMKK1
[15] = biological target: Ribosomal protein S6 kinase alpha-2 (Homo sapiens) (UniProt Q15349); test: Selectivity interaction (ProQinase) EUB0000171b RPS6KA2
[16] = biological target: Platelet-derived growth factor receptor beta (Homo sapiens, UniProt P09619); test: Selectivity interaction (KinomeScan (DiscoverX)) EUB0001049a PDGFRB; settings: at 1 µM
[17] = biological target: Dual specificity protein kinase CLK1 (Homo sapiens, UniProt P49759); test: Selectivity interaction (KinomeScan (DiscoverX)) EUB0000666a CLK1; settings: at 10 µM
[18] = biological target: Serine/threonine-protein kinase NIM1 (Homo sapiens, UniProt Q8IY84); test: Selectivity interaction (KinomeScan (DiscoverX)) EUB0000092b NIM1K; settings: at 10 µM
[19] = biological target: Cyclin-dependent kinase 7 (Homo sapiens, UniProt P50613); test: Selectivity interaction (KinomeScan (DiscoverX)) EUB0001550a CDK7; settings: at 1 µM
Cyclin-dependent kinase 7, sequence (P50613 whole entry): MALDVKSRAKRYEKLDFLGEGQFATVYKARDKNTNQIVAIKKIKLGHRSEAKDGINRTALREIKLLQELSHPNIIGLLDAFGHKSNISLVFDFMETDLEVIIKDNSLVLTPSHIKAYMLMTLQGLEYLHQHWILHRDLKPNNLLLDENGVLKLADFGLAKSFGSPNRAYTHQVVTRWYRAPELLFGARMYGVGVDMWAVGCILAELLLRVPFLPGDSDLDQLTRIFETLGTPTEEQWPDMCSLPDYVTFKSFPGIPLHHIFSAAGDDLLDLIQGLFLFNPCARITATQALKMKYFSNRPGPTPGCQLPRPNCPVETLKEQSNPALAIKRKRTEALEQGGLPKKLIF

Calcium/calmodulin-dependent protein kinase kinase 1 (Homo sapiens), sequence (Q8N5S9 whole entry, looked up): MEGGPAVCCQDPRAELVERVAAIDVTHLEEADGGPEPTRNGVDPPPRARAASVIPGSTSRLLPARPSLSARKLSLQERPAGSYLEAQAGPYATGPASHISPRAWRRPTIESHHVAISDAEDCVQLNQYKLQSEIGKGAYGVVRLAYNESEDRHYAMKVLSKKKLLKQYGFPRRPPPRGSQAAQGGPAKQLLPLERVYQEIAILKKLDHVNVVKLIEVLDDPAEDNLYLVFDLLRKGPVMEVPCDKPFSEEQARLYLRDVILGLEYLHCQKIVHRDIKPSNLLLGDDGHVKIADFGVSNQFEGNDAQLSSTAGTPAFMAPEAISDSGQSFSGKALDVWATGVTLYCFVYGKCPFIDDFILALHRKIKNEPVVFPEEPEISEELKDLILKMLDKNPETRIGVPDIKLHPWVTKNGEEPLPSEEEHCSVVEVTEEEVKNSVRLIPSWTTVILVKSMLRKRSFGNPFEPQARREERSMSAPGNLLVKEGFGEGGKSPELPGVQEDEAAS
Ribosomal protein S6 kinase alpha-2 (Homo sapiens), sequence (Q15349 whole entry): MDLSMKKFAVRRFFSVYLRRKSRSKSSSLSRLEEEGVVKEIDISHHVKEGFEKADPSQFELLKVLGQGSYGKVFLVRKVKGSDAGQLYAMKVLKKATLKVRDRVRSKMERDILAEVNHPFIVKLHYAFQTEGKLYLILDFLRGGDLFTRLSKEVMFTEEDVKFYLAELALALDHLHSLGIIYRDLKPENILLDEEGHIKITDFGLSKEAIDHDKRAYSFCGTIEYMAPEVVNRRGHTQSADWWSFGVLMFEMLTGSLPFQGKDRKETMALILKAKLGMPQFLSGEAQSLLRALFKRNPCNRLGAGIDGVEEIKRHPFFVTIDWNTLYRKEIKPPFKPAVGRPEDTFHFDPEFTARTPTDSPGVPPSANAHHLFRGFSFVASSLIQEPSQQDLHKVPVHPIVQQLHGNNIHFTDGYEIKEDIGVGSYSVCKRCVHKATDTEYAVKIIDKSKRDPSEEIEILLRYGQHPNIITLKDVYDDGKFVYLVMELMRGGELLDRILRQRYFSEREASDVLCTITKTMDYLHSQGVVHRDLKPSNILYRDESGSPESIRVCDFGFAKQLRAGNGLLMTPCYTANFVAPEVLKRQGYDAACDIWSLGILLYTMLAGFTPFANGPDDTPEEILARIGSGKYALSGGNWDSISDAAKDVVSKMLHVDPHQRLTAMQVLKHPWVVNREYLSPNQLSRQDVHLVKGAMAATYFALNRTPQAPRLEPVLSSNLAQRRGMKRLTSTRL
Dual specificity protein kinase CLK1, sequence (P49759 whole entry, looked up): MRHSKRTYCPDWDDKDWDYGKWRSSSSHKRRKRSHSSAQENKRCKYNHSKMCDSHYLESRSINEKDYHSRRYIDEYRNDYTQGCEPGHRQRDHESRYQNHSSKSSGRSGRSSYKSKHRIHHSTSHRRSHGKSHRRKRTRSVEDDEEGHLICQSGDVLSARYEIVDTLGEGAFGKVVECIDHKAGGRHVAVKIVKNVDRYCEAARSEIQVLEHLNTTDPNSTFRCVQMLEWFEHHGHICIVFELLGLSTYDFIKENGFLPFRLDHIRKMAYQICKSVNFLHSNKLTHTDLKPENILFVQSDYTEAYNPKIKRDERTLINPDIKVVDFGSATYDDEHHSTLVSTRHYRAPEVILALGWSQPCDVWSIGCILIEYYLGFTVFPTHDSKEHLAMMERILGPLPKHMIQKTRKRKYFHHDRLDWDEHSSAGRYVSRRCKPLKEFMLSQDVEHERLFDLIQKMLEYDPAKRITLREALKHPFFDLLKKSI
Non-receptor tyrosine-protein kinase TYK2, sequence (P29597 whole entry): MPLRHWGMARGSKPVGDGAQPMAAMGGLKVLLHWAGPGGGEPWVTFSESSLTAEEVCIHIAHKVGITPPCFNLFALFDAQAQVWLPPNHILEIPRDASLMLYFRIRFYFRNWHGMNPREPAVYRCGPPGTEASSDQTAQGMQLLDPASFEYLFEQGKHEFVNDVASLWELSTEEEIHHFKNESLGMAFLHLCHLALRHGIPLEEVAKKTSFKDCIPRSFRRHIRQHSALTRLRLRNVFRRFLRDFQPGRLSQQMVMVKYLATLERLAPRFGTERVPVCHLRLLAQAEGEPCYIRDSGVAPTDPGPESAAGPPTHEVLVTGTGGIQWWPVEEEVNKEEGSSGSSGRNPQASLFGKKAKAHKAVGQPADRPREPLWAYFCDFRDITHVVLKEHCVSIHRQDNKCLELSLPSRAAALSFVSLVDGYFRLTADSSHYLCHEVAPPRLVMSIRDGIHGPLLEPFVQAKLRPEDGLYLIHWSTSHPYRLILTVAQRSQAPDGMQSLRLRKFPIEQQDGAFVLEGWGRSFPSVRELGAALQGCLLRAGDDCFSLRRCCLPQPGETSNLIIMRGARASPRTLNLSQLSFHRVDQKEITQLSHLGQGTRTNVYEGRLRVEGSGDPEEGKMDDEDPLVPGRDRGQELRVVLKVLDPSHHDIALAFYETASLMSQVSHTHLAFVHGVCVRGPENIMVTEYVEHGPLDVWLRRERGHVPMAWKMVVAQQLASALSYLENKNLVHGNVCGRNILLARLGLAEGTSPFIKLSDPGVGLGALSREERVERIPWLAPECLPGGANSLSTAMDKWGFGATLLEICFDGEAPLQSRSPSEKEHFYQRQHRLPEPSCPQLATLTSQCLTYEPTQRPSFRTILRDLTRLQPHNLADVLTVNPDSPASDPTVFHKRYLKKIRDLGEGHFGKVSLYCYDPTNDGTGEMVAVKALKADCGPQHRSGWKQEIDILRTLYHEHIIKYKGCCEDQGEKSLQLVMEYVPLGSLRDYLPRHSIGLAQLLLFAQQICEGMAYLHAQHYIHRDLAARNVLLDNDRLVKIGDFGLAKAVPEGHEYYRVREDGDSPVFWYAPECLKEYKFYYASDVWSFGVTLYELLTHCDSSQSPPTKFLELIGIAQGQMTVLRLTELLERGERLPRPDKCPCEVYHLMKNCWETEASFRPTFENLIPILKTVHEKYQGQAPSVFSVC
Ephrin type-A receptor 4, sequence (P54764 whole entry): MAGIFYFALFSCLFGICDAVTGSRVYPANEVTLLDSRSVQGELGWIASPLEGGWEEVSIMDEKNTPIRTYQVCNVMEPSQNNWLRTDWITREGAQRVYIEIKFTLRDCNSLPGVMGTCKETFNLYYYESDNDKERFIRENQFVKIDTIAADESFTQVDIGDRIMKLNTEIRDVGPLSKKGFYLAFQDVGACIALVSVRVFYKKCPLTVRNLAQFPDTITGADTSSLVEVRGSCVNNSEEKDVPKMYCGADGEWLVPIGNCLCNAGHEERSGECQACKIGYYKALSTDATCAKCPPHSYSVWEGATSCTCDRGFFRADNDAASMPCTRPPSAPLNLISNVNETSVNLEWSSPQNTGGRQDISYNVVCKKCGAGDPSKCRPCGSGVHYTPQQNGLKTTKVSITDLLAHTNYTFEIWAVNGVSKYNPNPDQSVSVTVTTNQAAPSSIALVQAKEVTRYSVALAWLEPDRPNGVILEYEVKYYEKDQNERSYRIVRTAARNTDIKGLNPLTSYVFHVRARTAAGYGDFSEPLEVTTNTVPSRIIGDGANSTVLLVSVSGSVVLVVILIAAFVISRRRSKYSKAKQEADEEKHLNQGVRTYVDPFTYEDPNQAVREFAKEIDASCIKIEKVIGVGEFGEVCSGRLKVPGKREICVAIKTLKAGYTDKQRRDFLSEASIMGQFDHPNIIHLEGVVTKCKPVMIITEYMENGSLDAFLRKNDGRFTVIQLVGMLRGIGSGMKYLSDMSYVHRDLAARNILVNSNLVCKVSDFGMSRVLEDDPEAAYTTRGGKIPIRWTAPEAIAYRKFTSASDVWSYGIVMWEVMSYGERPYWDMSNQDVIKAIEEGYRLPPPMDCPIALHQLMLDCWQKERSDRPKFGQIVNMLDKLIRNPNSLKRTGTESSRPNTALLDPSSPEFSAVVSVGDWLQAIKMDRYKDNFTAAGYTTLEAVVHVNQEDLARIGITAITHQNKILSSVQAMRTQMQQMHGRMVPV
Protein-tyrosine kinase 6, sequence (Q13882 whole entry, looked up): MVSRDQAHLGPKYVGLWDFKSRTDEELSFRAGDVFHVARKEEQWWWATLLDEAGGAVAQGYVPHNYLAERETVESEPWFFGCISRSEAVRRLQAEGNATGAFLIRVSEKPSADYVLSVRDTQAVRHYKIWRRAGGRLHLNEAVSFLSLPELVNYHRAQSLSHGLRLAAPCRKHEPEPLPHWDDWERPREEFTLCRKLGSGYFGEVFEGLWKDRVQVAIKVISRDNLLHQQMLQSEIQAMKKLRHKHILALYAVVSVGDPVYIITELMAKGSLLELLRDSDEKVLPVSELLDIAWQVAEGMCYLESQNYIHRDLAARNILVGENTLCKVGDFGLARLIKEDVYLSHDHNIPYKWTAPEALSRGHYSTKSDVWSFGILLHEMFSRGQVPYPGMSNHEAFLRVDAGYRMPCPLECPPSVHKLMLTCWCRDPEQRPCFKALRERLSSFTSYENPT
Casein kinase II subunit alpha' (Homo sapiens), sequence (P19784 whole entry, looked up): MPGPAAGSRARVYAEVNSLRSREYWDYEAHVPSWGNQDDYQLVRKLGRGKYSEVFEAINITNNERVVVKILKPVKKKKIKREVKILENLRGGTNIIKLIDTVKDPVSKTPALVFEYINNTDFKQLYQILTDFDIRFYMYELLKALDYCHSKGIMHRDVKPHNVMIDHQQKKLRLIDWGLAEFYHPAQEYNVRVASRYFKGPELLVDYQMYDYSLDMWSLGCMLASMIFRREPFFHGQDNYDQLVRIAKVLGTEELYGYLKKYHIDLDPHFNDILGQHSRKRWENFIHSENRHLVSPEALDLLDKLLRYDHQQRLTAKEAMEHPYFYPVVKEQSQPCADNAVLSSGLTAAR

CCN(CC)CCCCNc1ncc2cc(-c3cc(OC)cc(OC)c3)c(NC(=O)NC(C)(C)C)nc2n1
% of control (Ephrin type-A receptor 4): 100%

Cc1cc(C)cc([C@H]2c3cc(C)ccc3NC(=O)CN2C(=O)c2ccc(Br)s2)c1
% of activity ([1]; at 1 µM): 100% | % of activity ([1]; at 10 µM): 96.7%

CN(C)CCOc1ccc(-c2nc(-c3ccncc3)c(-c3ccc4c(c3)CC/C4=N\O)[nH]2)cc1
% of control [2]: 100%

O[C@H]1CC[C@H](Nc2ncc3nc(Nc4c(F)cc(F)cc4F)n([C@H]4CCOC4)c3n2)CC1
% of control [3]: 100%

CNC(=O)Nc1ccc(-c2nc(N3CC4CCC(C3)O4)c3cnn(C4CCC5(CC4)OCCO5)c3n2)cc1
% of control [4]: 16% | % of control [5]: 55% | % of control [6]: 91% | % of control [7]: 100%

C=CC(=O)Nc1cc(-n2c(=O)ccc3cnc4ccc(-c5ccc(NS(C)(=O)=O)cc5)cc4c32)ccc1C
% of control [8]: 100%

COCC(=O)NC/C=C/c1ccc2ncnc(Nc3ccc(Oc4ccc(C)nc4)c(C)c3)c2c1 [CP-724714]
% of control [9]: 71%

C=CC(=O)Nc1ccc(C(=O)Nc2[nH]nc3c2CN(C(=O)N[C@H](CN(C)C)c2ccccc2)C3(C)C)cc1
% of engagement [10]: -26.3% | % of engagement [11]: -4.5%

Cc1cc([C@@H](C)Nc2ccccc2C(=O)O)c2nc(N3CCOCC3)cc(=O)n2c1 [AZD-6482]
% of control [12]: 98%

CC[C@@H]1[C@H](F)C(=O)N[C@@H]1COc1nccc2cc(C(N)=O)c(OC)cc12 [ZIMLOVISERTIB]
% of inhibition (Activated CDC42 kinase 1): -1.67%

COc1cc(N(C)c2ccnc3ccc(C(F)(F)F)cc23)cc(OC)c1OC
% binding [13]: 74%

C=CC(=O)Nc1cccc(C(=O)Nc2ccc(Nc3cc(-c4[nH]c(SC)nc4C)ccn3)cc2)c1
% of control ([14]; at 1 µM): 98% | % of control ([14]; at 5 µM): 108% | % of control ([15]; at 1 µM): 88% | % of control ([15]; at 5 µM): 69%

COc1cc(Nc2nc(C)cc(-c3cnn4nc(OC)ccc34)n2)cc(C(F)(F)F)c1
% of control [16]: 100%

O=C(NOC[C@H](O)CO)c1ccc(F)c(F)c1Nc1ccc(I)cc1F
% of control [17]: 95%

CCC(=O)N1CCN(c2ccc(-n3c(=O)ccc4cnc5ccc(-c6cnc7ccccc7c6)cc5c43)cc2C(F)(F)F)CC1
% of control [18]: 84%

CN(C)CC#Cc1ccc2[nH]c3c(c2c1)-c1nc(N)ncc1CCC3
% of control [19]: 20%
